“And” between values parts separate entries of the source, which are not always exact repeats. Identical values can stand only once.
Legend:
Assay type in all cases: ADME, organism-based
[1] = (§1) Pharmacokinetic parameters for Levofloxacin evaluated after oral or IV single dose administration of 250, 500 or 750 mg Levofloxacin to male and/or female subjects of variable age ranges and health status.; set-up: dose 250 mg, dose 500 mg, dose 750 mg, route oral, route iv; conditions: human, in vivo
Homo sapiens [2] = test: as §1; set-up: dose 250 mg, dose 500 mg, dose 750 mg, route oral, route iv; conditions: in vivo
[3] = (§2) Pharmacokinetic parameters for Levofloxacin evaluated after multiple oral or IV administration of 250, 500 or 750 mg Levofloxacin, to male and/or female subjects of variable age ranges and health status.; set-up: dose 500 mg, dose 750 mg, dose 250 mg, route iv, route oral; conditions: human, in vivo; for CL renal: read-out: CL_renal
Homo sapiens [4] = test: as §2; set-up: dose 500 mg, dose 750 mg, dose 250 mg, route iv, route oral; conditions: in vivo

For `C[C@H]1COc2c(N3CCN(C)CC3)c(F)cc3c(=O)c(C(=O)O)cn1c23.C[C@H]1COc2c(N3CCN(C)CC3)c(F)cc3c(=O)c(C(=O)O)cn1c23.O` [LEVOFLOXACIN], the Tmax ([1]; iv) was 1 h, the half-life ([1]; iv) was 6.4 h and the CL renal ([1]; iv, read-out: CL_renal) was 112 mL/min. For the same compound, the Vd/F ([1]; po) was 112 L, the CL/F (Homo sapiens [2]; iv) was 175 mL/min and 126 mL/min and the Vd/F (Homo sapiens [2]; iv) was 90 L and 75 L. For the same compound, the t1/2 (Homo sapiens [2]; iv) was 7.5 h, the Vd/F (Homo sapiens [2]; po) was 83 L and 89 L and 62 L and 67 L and the half-life ([3]; iv) was 7.9 h. It also gave a CL renal ([3]; iv) of 99 mL/min, a CL/F ([3]; po) of 175 mL/min and a Tmax ([3]; po) of 1.4 h. It also gave a Vd/F ([3]; po) of 102 L, a half-life ([3]; po) of 8.8 h and a CL renal ([3]; po) of 116 mL/min. The AUC (Homo sapiens [4]) was 72.5 mcg.hr/mL [middle of 5 runs], the Cmax (Homo sapiens [4]) was 8.6 mcg/mL [middle of 5 runs] and the CL/F (Homo sapiens [4]; iv) was 154 mL/min and 126 mL/min and 158 mL/min. For the same compound, the Vd/F (Homo sapiens [4]; iv) was 111 L and 80 L and 91 L, the t1/2 (Homo sapiens [4]; iv) was 7 h and the CL/F (Homo sapiens [4]; po) was 143 mL/min. For the same compound, the Vd/F (Homo sapiens [4]; po) was 100 L.

From ChEMBL document CHEMBL3832078
